{"source": "patent US8198285B2", "about": "“Pyrazine derivatives” (Astrazeneca AB, priority 2010, dated 2012)", "key": {"[1]": {"test_system": "osteoclast-derived tartrate-resistant acid phosphatase form 5b (TRAcP-5b)", "experiment": "Bone biomarker evaluation: serum TRAcP-5b assay", "type": "in vivo, rat", "settings": "oral once a day, 7 consecutive days, female CRL:CD rats", "experimental": "(§1) For in vitro osteogenesis, human adipose-derived stem cells (hADSC) (Invitrogen, UK; catalogue number R7788-115) were seeded into 12-well plates at a density of 5000 cells/cm^2 and were cultured in a basal media of phenol red-free Dulbecco's Modified Eagles Medium (DMEM; Sigma-Aldrich, UK; catalogue number D1145) supplemented with 5% fetal bovine serum (FBS, Gibco, UK; catalogue number 10270) and 2 mM GlutaMax® (Gibco; catalogue number 35050). […] The formation of mineralized bone nodules was assessed during the time-course using Alizarin Red S staining. […] The amount of mineralisation was quantified through the extraction of the Alizarin Red S stain from bone nodules using a cetylpyridinium chloride extraction method, previously described (Gregory et al., Analytical Biochemistry, 2004, 329: 77-84; Hwang et al., Stem Cells and Development 17: 963-970, 2008). […] Following incubation, 200 μl aliquots were transferred to 96-well format and the absorbance at 550 nm was determined using a microplate spectrophotometer (SpectraMax Plus, Molecular Devices, USA). Data were expressed as mean absorbance at 550 nm±Standard error of mean (SEM). […] Data are shown as mean absorbance at 550 nm and analysed using one-way ANOVA followed by Tukey's multiple comparison post hoc test: n=9; ***, P<0.001. […]"}, "[2]": {"test_system": "N-terminal propeptide of type I procollagen (P1NP)", "experiment": "Bone biomarker evaluation: serum P1NP assay", "type": "in vivo, rat", "settings": "oral once a day, 7 consecutive days, female CRL:CD rats", "experimental": "as §1"}, "CYP3A4": {"molecular_target": "T1, CYP3A4 (Homo sapiens, UniProt P08684)", "T1 construct": "purchased Cypex (Dundee, UK); host or cells: E. coli (membranes)", "T1 sequence (P08684 whole entry)": "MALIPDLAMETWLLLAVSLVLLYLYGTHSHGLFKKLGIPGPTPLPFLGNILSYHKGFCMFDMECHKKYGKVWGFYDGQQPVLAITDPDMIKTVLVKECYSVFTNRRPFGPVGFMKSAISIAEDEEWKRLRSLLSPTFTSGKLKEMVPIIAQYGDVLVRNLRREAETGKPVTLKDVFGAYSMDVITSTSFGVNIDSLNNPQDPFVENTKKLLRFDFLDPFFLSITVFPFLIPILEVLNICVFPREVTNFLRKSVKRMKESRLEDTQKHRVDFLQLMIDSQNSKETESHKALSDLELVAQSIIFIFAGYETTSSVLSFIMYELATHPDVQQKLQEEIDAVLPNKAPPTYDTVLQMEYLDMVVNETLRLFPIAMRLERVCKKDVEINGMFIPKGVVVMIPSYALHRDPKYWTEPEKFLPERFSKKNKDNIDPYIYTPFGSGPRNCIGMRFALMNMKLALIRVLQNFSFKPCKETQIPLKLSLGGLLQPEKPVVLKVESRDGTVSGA", "experiment": "CYP3A4 inhibition (midazolam oxidation to 1'-hydroxymidazolam)", "type": "in vitro ADME", "settings": "E. coli expressed 3A4 membranes, midazolam 2.5 μM; read-out: IC50 CYP3A4 (estimated)", "experimental": "The ability of certain compounds to inhibit CYP3A4 in membranes was determined from the inhibition of midazolam oxidation to 1′-hydroxy midazolam. […] Employing an automated assay (full IC50) using the Automation Platform, up to thirteen compounds were run per plate as well as ketoconazole as a standard inhibitor of CYP3A4.\nThe incubations were carried out in 0.1 M phosphate buffer (pH 7.4 at 37° C.) containing DMSO (1%), midazolam (2.5 μM), phenacetin (25.7 μM), diclofenac (1.8 μM), S-mephenyloin (30.5 μM), bufuralol (8.8 μM), NADPH (1 mM), E. coli expressed 3A4 membranes (5 pmol/ml), 1A2 membranes (25 pmol/ml), 2C9 membranes (5 pmol/ml), 2C19 membranes (2.5 pmol/ml), 2D6 membranes (5 pmol/ml), and the test inhibitors ketoconazole, α-napthoflavone, sulphaphenazole, tranylcypromine and quinidine. […]\nThe assay was run on a robotic sample processor. […] The samples were centrifuged, transferred to a clean plate and analysed by LC MS/MS, which was conducted using an Applied Biosystems-Sciex API4000 mass spectrometer, with Agilent HP1100 binary solvent delivery pumps, and CTC HTS-PAL autosampler. […] The formation of product (1′-hydroxymidazolam) was monitored. […]\nRates of reaction were calculated for each reaction by measuring MS/MS area units. […]\nThe degree of inhibition of CYP3A4 was calculated and expressed as an IC50 value. […]"}}, "note": "Counter-ions that a name gives are not always drawn."}
{"smiles": "COCCCNCCCc1ccc(-c2cnc(N)c(C(=O)Nc3cccnc3)n2)cc1", "note": "[Example 1, 3-Amino-6-(4-{3-[(3-methoxypropyl)amino]propyl}phenyl)-N-pyridin-3-ylpyrazine-2-carboxamide tri-hydrochloride]", "values": [{"measurement": "Serum TRAcP-5b levels (marker of bone resorption)", "setting": "[1]", "value": "reduction in serum TRAcP-5b levels"}, {"measurement": "Serum P1NP levels (marker of bone formation)", "setting": "[2]", "value": "increase in serum P1NP levels"}, {"measurement": "IC50", "setting": "CYP3A4", "value": "> 50", "unit": "µM"}]}
